# From PMC12562379, “Facile Synthesis of N-vinylindoles via Knoevenagel Condensation: Molecular Features and Biological Activities” (International Journal of Molecular Sciences, 2025)
# Read-outs that look alike come from different tables or passages of the source.
# Key:
# HaCaT = test: MTT assay, cytotoxic activity on non-cancerous keratinocytes; assay type: cell-based; conditions: Homo sapiens, 24 h, n = 12
# Protocol: (§1) The human ovarian SKOV-3, gastric adenocarcinoma AGS, cervical HeLa cell lines and non-cancerous keratinocytes HaCaT were obtained from the American Type Culture Collection (ATCC, Manassas, VA, USA). The cell lines were cultured in McCoy’s Medium, Dulbecco’s Modified Eagle’s Medium/F12, and DMEM, respectively (Merck Millipore, Burlington, MA, USA). Penicillin (100 units/mL), streptomycin ([…]), and 10% (v/v) fetal bovine serum (FBS) were added to all the media. The cells were incubated at 37 °C and 5% CO2.
# (§2) To estimate the cytotoxic activity of the obtained compounds 2a-i, MTT assay was used. The cells (5 × 10^3 cells/well) were treated with the compounds in a range of concentrations 1–150 µg/mL. […] After 24 h, MTT solution (0.5 mg/mL) was added to the cells. Formazan crystals were dissolved in DMSO and the absorbance was measured with a microtiter plate reader (Epoch, BioTek Instruments, Winooski, VT, USA).
# HeLa = test: MTT assay, cytotoxic activity; assay type: cell-based, human; conditions: Homo sapiens, 24 h, n = 12
# Protocol: as §1, §2
# AGS = test: MTT assay, cytotoxic activity; assay type: cell-based, human; conditions: Homo sapiens, 24 h, n = 12
# Protocol: as §1, §2
# SKOV-3 = test: MTT assay, cytotoxic activity; assay type: cell-based, human; conditions: Homo sapiens, SK-OV-3; SKOV-3, MTT, 24 h, n = 12
# Protocol: as §1, §2
# [1] = system: HeLa, SKOV-3, AGS (and HaCaT) cell lines; test: MTT assay, ranges stated over several cell lines; assay type: cell-based, human; conditions: for IC50: Homo sapiens
# Protocol: as §1, §2
# C. albicans ATCC 10231 = test: Microbroth dilution assay; assay type: cell-based, Candida albicans
# Protocol: (§3) The minimum inhibitory concentration (MIC) and minimum bactericidal/fungicidal concentration (MBC/MFC) of the tested compounds were determined by the microbroth dilution technique using 96-well plates based on the methodology described in the EUCAST (European Committee on Antimicrobial Susceptibility Testing) standards. Reference and clinical strains of Gram-positive (Staphylococcus aureus ATCC 6538, Staphylococuccus aureus MRSA 6347) and Gram-negative (Escherichia coli ATCC 8739) bacteria, and yeast (Candida albicans ATCC 10231, Candida glabrata ATCC 2001) were used for the assay. The studies were carried out in the Mueller–Hinton (MH) broth for bacteria and RPMI 1640 broth + MOPS (Sigma-Aldrich, Poland) buffer in the case of yeast. The dry test samples were dissolved in DMSO (dimethyl sulfoxide), resulting in a final concentration of 15 mg/mL, and then diluted in a geometric progression. Ampicillin (Sigma-Aldrich, Poland) acted as a control sample (512 to 4 µg/mL) for bacteria and ketoconazole (128 to 1 µg/mL) (Sigma-Aldrich, Poland) acted as a control sample for yeast. The cultures of microorganisms were prepared by transferring cells from the stock cultures to tubes with the appropriate broth and incubated with agitation in an aerobic atmosphere for 18 ± 2 h at 35 ± 1 °C; next, they were diluted to achieve an optical density corresponding to 5 × 105 (bacteria) or 2 × 105 (yeast) colony-forming units per mL (cfu/mL). An appropriate media (96 µL), along with the tested compounds with a final concentration range of 300–3.1 µg/mL (4 µL) and next microbial suspension (100 µL) were added to each well. Plates with samples were incubated in adequate conditions described above and microbial growth was assessed. […] (>90%; ketoconazole) but 50% (for other compounds) inhibits visible growth of yeasts. Next, as a control of microbial viability, 100 µL of the samples from each well without growth was inoculated on the MH or RPMI agar plates and incubated for 18 ± 2 h at 35 ± 1 °C and finally, the CFU was counted. The MBC/MFC was determined as the minimum concentration of compounds required to kill 99.9% the organisms.
# SKOV-3 cells = test: Cell cycle assay (Muse Cell Analyzer); assay type: cell-based, human; conditions: SKOV-3, 48 h
# Protocol: The SKOV-3 cells (5 × 10^5 cells/well) were seeded and incubated with compound 2i at concentrations of 2, 5, 10, 15, 30, and 60 µg/mL for 48 h. After treatment, Muse Cell Cycle Assay Kit and Muse Cell Analyzer (Merck Millipore, Burlington, MA, USA) were used to analyze the stained cells, according to the manufacturer’s instruction. The results are shown as percentage of the cells in each phase of cell cycle: subG0, G0/G1, S, and G2/M. The experiment was repeated in two independent repeats (in three repetitions).
# C. glabrata ATCC 2001 = test: Microbroth dilution assay; assay type: cell-based, Candida glabrata; conditions: Nakaseomyces glabratus, ATCC2001
# Protocol: as §3
# E. coli ATCC 8739 = test: Microbroth dilution assay; assay type: cell-based; conditions: Escherichia coli, ATCC8739, E. coli ATCC 8739
# Protocol: as §3
# S. aureus ATCC 6535 = test: Microbroth dilution assay; assay type: cell-based; conditions: Staphylococcus aureus, ATCC6535
# [2] = molecular target: T1, AGE2-BSA/sRAGE interaction (Homo sapiens, UniProt Q15109); test: ELISA AGE2-BSA/sRAGE inhibitory screening; assay type: binding
# T1 construct: purchased Creative BioMart
# T1 sequence (Q15109 23-342 limits assumed): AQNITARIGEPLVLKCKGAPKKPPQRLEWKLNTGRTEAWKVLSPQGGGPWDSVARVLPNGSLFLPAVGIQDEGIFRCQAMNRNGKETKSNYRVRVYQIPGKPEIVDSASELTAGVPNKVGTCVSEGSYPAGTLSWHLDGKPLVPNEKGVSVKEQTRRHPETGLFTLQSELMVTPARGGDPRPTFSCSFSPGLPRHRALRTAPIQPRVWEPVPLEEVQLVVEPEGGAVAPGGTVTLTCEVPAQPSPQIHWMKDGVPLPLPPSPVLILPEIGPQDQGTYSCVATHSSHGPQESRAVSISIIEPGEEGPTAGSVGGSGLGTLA
# Protocol: The in vitro inhibitor screening of AGE2 (glyceraldehyde-modified AGE)-sRAGE interaction (soluble RAGE) was performed using a 96-well AGE-BSA-coated plate (Creative BioMart® ELISA kit, Shirley, NY, USA), according to the manufacturer’s instructions. 100 UA/mL soluble RAGE (sRAGE) was incubated with 100 μM of the tested compounds or 0.05% DMSO as a negative control on an AGE2-BSA-coated plate at room temperature for 60 min, shaking at 300 rpm on an orbital microplate shaker. After incubation, the wells were washed 4 times with wash buffer and horseradish peroxidase (HRP)-labeled anti-RAGE antibody was added and the plate was further incubated at room temperature for 60 min, shaking at 300 rpm on an orbital microplate shaker. After incubation, the wells were washed 4 times with wash buffer and the Substrate Reagent was added to each well. After an incubation at room temperature for 5 min, the HRP-labeled antibody sRAGE-AGE complex was then detected by measuring the absorbance at 450 nm using the microplate reader Varioskan (Thermo Fischer Scientific). These experiments were repeated two times.
# [3] = range over the cancer cell lines HeLa, SKOV-3 and AGS
compound,measurement,setting,value
"C(=C(\C1=NCCN1)n1ccc2ccccc21)/c1ccc2ccccc2c1 [Compound 2i, (Z)-1-[1-(4,5-dihydro-1H-imidazol-2-yl)-2-(naphthalen-2-yl)vinyl]-1H-indole]",IC50,HaCaT,3.02 ± 0.18 µg/mL
same,IC50,HeLa,2.03 ± 0.05 µg/mL
same,IC50,AGS,5.68 ± 0.41 µg/mL
same,IC50,SKOV-3,2.45 ± 0.13 µg/mL
same,IC50,[1]; range over HeLa and SKOV-3 cell lines,2.03 to 2.45 µg/mL
same,IC50,[1]; [3],2.03 to 5.68 µg/mL
same,IC50 (range over cell lines),[1]; [3],2.03 to 5.58 µg/mL
same,MFC,C. albicans ATCC 10231; C. albicans ATCC 10231,120 µg/mL
same,MIC,C. albicans ATCC 10231; C. albicans ATCC 10231,120 µg/mL
same,MFC,"C. albicans ATCC 10231; Candida albicans, ATCC10231, C. albicans ATCC 10231, read-out: MFC",60 µg/mL
same,MIC,"C. albicans ATCC 10231; Candida albicans, ATCC10231, C. albicans ATCC 10231, read-out: MIC",60 µg/mL
same,cells in subG0 phase,SKOV-3 cells; 2 µg/mL,28.10 ± 4.49%
same,cells in subG0 phase,SKOV-3 cells; 5 µg/mL,49.00 ± 0.85%
same,cells in subG0 phase,SKOV-3 cells; 10 µg/mL,82.73 ± 1.33%
same,cells in subG0 phase,SKOV-3 cells; 15 µg/mL,91.67 ± 0.57%
same,cells in subG0 phase,SKOV-3 cells; 30 µg/mL,95.30 ± 1.67%
same,cells in subG0 phase,SKOV-3 cells; 60 µg/mL,99.83 ± 0.15%
same,cell cycle arrest,"SKOV-3 cells; 2–60 µg/mL, all concentrations",strongly induced cell cycle arrest in subG0 phase
same,MFC,C. glabrata ATCC 2001,60 µg/mL
same,MIC,C. glabrata ATCC 2001,60 µg/mL
same,MBC,E. coli ATCC 8739,> 240 µg/mL
same,MIC,E. coli ATCC 8739; read-out: MIC,> 240 µg/mL
same,MBC,S. aureus ATCC 6535,30 µg/mL
same,MIC,S. aureus ATCC 6535,15 µg/mL
same,inhibition at 100 µM,[2],49.4%
